Experimental data taken from ChEMBL document CHEMBL3526097, “Preclinical disposition of GDC-0973 and prospective and retrospective analysis of human dose and efficacy predictions” (Drug Metab Dispos, 2012).
pIC50: −log10 of the molar value.

Experiments:
[1] = Plasma clearance in Beagle dog at 3 mg/kg, iv by LC-MS/MS analysis; format: ADME, organism-based, Canis lupus familiaris; parameters: dose 3 mg/kg, route intravenous
[2] = test system: MDR1; experiment: Efflux ratio of permeability from […] side in MDCK1 cells expressing MDR1 at 25 uM after 2 hrs by LC-MS/MS analysis; format: ADME, cell-based, Canis lupus familiaris; conditions: dog, MDCK-MDR1
[3] = Antiproliferative activity against human COLO205 cells expressing B-raf V600E mutant; format: functional, cell-based; conditions: COLO 205
[4] = test system: MDR1; experiment: Apparent permeability from basolateral to apical side of MDCK1 cells expressing MDR1 at 25 uM after 2 hrs by LC-MS/MS analysis; format: ADME, cell-based, Canis lupus familiaris; conditions: dog, MDCK-MDR1
[5] = test system: Canis familiaris; experiment: AUC (infinity) in Beagle dog at 3 mg/kg, iv by LC-MS/MS analysis; format: ADME, organism-based, Canis lupus familiaris, Plasma; parameters: dose 3 mg/kg, route intravenous, time infinity; conditions: in vivo
[6] = Ratio of drug level in brain to plasma in mouse at 3 mg/kg after 2 hrs; format: ADME, organism-based; parameters: dose 3 mg/kg; conditions: read-out: BPR
[7] = Tmax in nu/nu mouse at 3 mg/kg, po by LC-MS/MS analysis; format: ADME, organism-based; parameters: dose 3 mg/kg, route oral; conditions: in vivo
[8] = Cmax in Sprague-Dawley rat at 3 mg/kg, po by LC-MS/MS analysis; format: ADME, organism-based; parameters: dose 3 mg/kg, route oral; conditions: in vivo
[9] = test system: Cynomolgus monkey; experiment: AUC (infinity) in cynomolgus monkey at 3 mg/kg, iv by LC-MS/MS analysis; format: ADME, organism-based, Macaca fascicularis, Plasma; parameters: time infinity, dose 3 mg/kg, route intravenous; conditions: in vivo
[10] = Volume of distribution at steady state in cynomolgus monkey at 3 mg/kg, iv by LC-MS/MS analysis; format: ADME, organism-based, Macaca fascicularis; parameters: dose 3 mg/kg, route intravenous; conditions: in vivo, read-out: Vdss
[11] = Volume of distribution at steady state in Beagle dog at 3 mg/kg, iv by LC-MS/MS analysis; format: ADME, organism-based, Canis lupus familiaris; parameters: dose 3 mg/kg, route intravenous; conditions: in vivo, read-out: Vdss
[12] = Ratio of unbound drug level in brain to plasma in mouse at 3 mg/kg after 2 hrs; format: ADME, organism-based; parameters: dose 3 mg/kg; conditions: read-out: BPR
[13] = Ratio of drug level in tumor to plasma in mouse xenografted with human COLO205 cells at 3 mg/kg after 2 hrs; format: ADME, organism-based, COLO 205; parameters: dose 3 mg/kg
[14] = Tmax in Sprague-Dawley rat at 3 mg/kg, po by LC-MS/MS analysis; format: ADME, organism-based; parameters: dose 3 mg/kg, route oral; conditions: in vivo
[15] = molecular target: ATP-dependent translocase ABCB1 (Homo sapiens, UniProt P08183); experiment: Inhibition of MDR1 (unknown origin) at 25 uM; format: ADME
Sequence of ATP-dependent translocase ABCB1 (P08183 whole entry): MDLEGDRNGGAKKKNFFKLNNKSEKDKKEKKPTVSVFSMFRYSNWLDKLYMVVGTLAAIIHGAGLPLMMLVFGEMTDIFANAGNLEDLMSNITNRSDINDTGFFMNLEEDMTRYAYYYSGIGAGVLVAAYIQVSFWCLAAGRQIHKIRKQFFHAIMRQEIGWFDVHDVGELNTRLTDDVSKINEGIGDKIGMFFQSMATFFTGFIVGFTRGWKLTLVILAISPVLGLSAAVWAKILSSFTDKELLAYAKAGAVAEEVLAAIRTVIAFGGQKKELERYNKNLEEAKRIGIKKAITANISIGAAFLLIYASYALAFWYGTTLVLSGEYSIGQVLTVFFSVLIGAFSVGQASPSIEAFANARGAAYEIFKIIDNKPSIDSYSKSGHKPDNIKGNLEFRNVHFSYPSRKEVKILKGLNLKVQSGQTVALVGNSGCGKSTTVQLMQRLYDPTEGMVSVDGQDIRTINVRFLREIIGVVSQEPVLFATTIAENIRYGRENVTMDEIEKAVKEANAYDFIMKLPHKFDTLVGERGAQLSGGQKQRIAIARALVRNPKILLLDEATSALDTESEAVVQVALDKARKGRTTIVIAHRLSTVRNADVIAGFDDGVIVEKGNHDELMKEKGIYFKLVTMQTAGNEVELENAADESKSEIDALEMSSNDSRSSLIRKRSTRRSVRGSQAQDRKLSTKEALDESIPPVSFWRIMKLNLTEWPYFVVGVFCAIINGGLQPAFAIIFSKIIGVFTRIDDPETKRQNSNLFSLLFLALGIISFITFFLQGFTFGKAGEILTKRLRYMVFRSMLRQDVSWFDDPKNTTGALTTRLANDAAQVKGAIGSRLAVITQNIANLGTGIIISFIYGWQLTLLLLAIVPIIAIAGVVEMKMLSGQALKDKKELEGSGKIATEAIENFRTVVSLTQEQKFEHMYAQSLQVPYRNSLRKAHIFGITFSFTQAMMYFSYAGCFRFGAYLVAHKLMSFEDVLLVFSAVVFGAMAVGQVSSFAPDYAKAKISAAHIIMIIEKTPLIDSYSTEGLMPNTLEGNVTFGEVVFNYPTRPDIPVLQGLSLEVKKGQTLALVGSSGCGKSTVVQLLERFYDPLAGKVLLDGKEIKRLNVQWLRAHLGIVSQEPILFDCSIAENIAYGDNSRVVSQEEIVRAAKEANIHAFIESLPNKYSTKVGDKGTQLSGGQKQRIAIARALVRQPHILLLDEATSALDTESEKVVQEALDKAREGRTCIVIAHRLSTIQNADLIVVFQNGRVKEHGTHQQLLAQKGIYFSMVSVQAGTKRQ

[16] = test system: Rattus norvegicus; experiment: AUC (infinity) in Sprague-Dawley rat at 3 mg/kg, iv by LC-MS/MS analysis; format: ADME, organism-based, Plasma; parameters: dose 3 mg/kg, route intravenous, time infinity; conditions: in vivo
[17] = Terminal half life in Sprague-Dawley rat at 3 mg/kg, iv by LC-MS/MS analysis; format: ADME, organism-based; parameters: dose 3 mg/kg, route intravenous; conditions: in vivo, read-out: beta t1/2 (converted)
[18] = Oral bioavailability in cynomolgus monkey at 3 mg/kg by LC-MS/MS analysis; format: ADME, organism-based, Macaca fascicularis; conditions: in vivo
[19] = Terminal half life in nu/nu mouse at 1 mg/kg, iv by LC-MS/MS analysis; format: ADME, organism-based; parameters: dose 1 mg/kg, route intravenous; conditions: in vivo, read-out: beta t1/2 (converted)
[20] = Efflux ratio of permeability from […] side in MDCK1 cells at 10 uM after 60 mins; format: ADME, cell-based, Canis lupus familiaris; conditions: dog, MDCK
[21] = test system: COLO 205; experiment: Antitumor activity against human COLO205 cells expressing B-raf V600E mutant xenografted in po dosed mouse assessed as inhibition of tumor growth; format: functional, organism-based
[22] = Volume of distribution at steady state in nu/nu mouse at 1 mg/kg, iv by LC-MS/MS analysis; format: ADME, organism-based; parameters: dose 1 mg/kg, route intravenous; conditions: in vivo, read-out: Vdss
[23] = Oral bioavailability in Sprague-Dawley rat at 3 mg/kg by LC-MS/MS analysis; format: ADME, organism-based; conditions: in vivo
[24] = AUC (infinity) in nu/nu mouse at 3 mg/kg, po by LC-MS/MS analysis; format: ADME, organism-based; parameters: time infinity, dose 3 mg/kg, route oral; conditions: plasma
[25] = Cmax in cynomolgus monkey at 3 mg/kg, po by LC-MS/MS analysis; format: ADME, organism-based, Macaca fascicularis; parameters: dose 3 mg/kg, route oral; conditions: in vivo
[26] = test system: Brain; experiment: Unbound concentration in mouse brain at 3 mg/kg after 2 hrs; format: ADME, organism-based; parameters: dose 3 mg/kg; conditions: in vivo
[27] = Terminal half life in Beagle dog at 3 mg/kg, iv by LC-MS/MS analysis; format: ADME, organism-based, Canis lupus familiaris; parameters: dose 3 mg/kg, route intravenous; conditions: in vivo, read-out: beta t1/2 (converted)
[28] = molecular target: Dual specificity mitogen-activated protein kinase kinase 1 (Homo sapiens, UniProt Q02750); experiment: Inhibition of MEK1 (unknown origin)
Sequence of Dual specificity mitogen-activated protein kinase kinase 1 (Q02750 whole entry): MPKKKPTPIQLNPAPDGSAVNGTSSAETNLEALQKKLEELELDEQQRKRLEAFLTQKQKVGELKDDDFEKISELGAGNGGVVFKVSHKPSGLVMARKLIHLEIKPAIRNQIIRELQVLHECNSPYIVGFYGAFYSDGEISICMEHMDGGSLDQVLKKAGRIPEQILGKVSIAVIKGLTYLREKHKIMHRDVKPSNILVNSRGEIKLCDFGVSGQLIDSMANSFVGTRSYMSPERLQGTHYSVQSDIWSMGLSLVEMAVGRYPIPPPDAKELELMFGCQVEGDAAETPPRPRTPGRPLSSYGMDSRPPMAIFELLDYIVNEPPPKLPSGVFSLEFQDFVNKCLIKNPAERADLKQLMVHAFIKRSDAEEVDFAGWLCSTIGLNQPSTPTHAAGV

[29] = AUC (infinity) in Sprague-Dawley rat at 3 mg/kg, po by LC-MS/MS analysis; format: ADME, organism-based; parameters: time infinity, dose 3 mg/kg, route oral; conditions: plasma
[30] = Fraction unbound in mouse brain; format: ADME, tissue-based
[31] = Tmax in Beagle dog at 3 mg/kg, po by LC-MS/MS analysis; format: ADME, organism-based, Canis lupus familiaris; parameters: dose 3 mg/kg, route oral; conditions: in vivo
[32] = Drug uptake in tumor of mouse xenografted with human COLO205 cells at 3 mg/kg after 2 hrs; format: ADME, organism-based, Neoplasm, COLO 205; parameters: dose 3 mg/kg; conditions: read-out: Drug uptake
[33] = test system: Brain; experiment: Unbound AUC in mouse brain; format: ADME, tissue-based; conditions: in vivo
[34] = Plasma clearance in Sprague-Dawley rat at 3 mg/kg, iv by LC-MS/MS analysis; format: ADME, organism-based; parameters: dose 3 mg/kg, route intravenous
[35] = Oral bioavailability in Beagle dog at 3 mg/kg by LC-MS/MS analysis; format: ADME, organism-based, Canis lupus familiaris; conditions: in vivo
[36] = Volume of distribution at steady state in Sprague-Dawley rat at 3 mg/kg, iv by LC-MS/MS analysis; format: ADME, organism-based; parameters: dose 3 mg/kg, route intravenous; conditions: in vivo, read-out: Vdss
[37] = Apparent permeability from basolateral to apical side of MDCK1 cells at 10 uM after 60 mins; format: ADME, cell-based, Canis lupus familiaris; conditions: dog, MDCK
[38] = Oral bioavailability in nu/nu mouse at 3 mg/kg by LC-MS/MS analysis; format: ADME, organism-based; conditions: in vivo
[39] = Terminal half life in cynomolgus monkey at 3 mg/kg, iv by LC-MS/MS analysis; format: ADME, organism-based, Macaca fascicularis; parameters: dose 3 mg/kg, route intravenous; conditions: in vivo, read-out: beta t1/2 (converted)
[40] = Cmax in nu/nu mouse at 3 mg/kg, po by LC-MS/MS analysis; format: ADME, organism-based; parameters: dose 3 mg/kg, route oral; conditions: in vivo
[41] = Tmax in cynomolgus monkey at 3 mg/kg, po by LC-MS/MS analysis; format: ADME, organism-based, Macaca fascicularis; parameters: dose 3 mg/kg, route oral; conditions: in vivo
[42] = test system: Mus musculus; experiment: AUC (infinity) in nu/nu mouse at 1 mg/kg, iv by LC-MS/MS analysis; format: ADME, organism-based, Plasma; parameters: time infinity, dose 1 mg/kg, route intravenous; conditions: in vivo
[43] = AUC (infinity) in cynomolgus monkey at 3 mg/kg, po by LC-MS/MS analysis; format: ADME, organism-based, Macaca fascicularis; parameters: time infinity, dose 3 mg/kg, route oral; conditions: plasma
[44] = test system: Plasma; experiment: Fraction unbound in mouse plasma at 3 mg/kg after 2 hrs; format: ADME, organism-based; parameters: dose 3 mg/kg; conditions: in vivo
[45] = Apparent permeability from apical to basolateral side of MDCK1 cells at 10 uM after 60 mins; format: ADME, cell-based, Canis lupus familiaris; conditions: dog, MDCK

**Q.** What does the source list for `O=C(c1ccc(F)c(F)c1Nc1ccc(I)cc1F)N1CC(O)([C@@H]2CCCCN2)C1` [COBIMETINIB]?
**A.** clearance [1]: 5.53 mL/min/kg; efflux ratio at 2 h, 25 µM [2]: 40; pIC50 [3]: 8.10; Papp B→A at 2 h, 25 µM [4]: 35.4 ×10⁻⁶ cm/s; AUC [5]: 17100 ng·h/mL; Kp at 2 h [6]: 0.5; Tmax [7]: 0.25 h; Cmax [8]: 193 ng/mL; AUC [9]: 3340 ng·h/mL; Vd [10]: 29.6 L/kg; Vd [11]: 3.99 L/kg; Kp uu at 2 h [12]: 0.018; Kp at 2 h [13]: 9; Tmax [14]: 3.5 h; inhibition (INH) [15]: Not Active; AUC [16]: 2320 ng·h/mL; half-life [17]: 13.3 h; bioavailability [18]: 19.6%; half-life [19]: 3.92 h; efflux ratio at 1 h, 10 µM [20]: 3; TGI [21]: Dose-dependent effect; Vd [22]: 9.4 L/kg; bioavailability [23]: 69%; AUC(0-inf) [24]: 1510 ng·h/mL; Cmax [25]: 50 ng/mL; Concentration [26]: 0.1 nM; half-life [27]: 9.19 h; pIC50 [28]: 8.38; AUC(0-inf) [29]: 1590 ng·h/mL; fraction unbound [30]: 0.0012; Tmax [31]: 2.67 h; concentration at 2 h [32]: 1560 nM; fAUC [33]: 3 nM·h; clearance [34]: 37.8 mL/min/kg; bioavailability [35]: 69.1%; Vd [36]: 34.6 L/kg; Papp B→A at 1 h, 10 µM [37]: 4 ×10⁻⁶ cm/s; bioavailability [38]: 53.9%; half-life [39]: 10.3 h; Cmax [40]: 184 ng/mL; Tmax [41]: 2 h; AUC [42]: 935 ng·h/mL; AUC(0-inf) [43]: 640 ng·h/mL; Cp(f) [44]: 5.7 nM; Papp A→B at 1 h, 10 µM [45]: 1.39 ×10⁻⁶ cm/s
